Here are results for 5 compounds from patent publication US20240026261A1, “ENGINEERING OF ORGANOID CULTURE FOR ENHANCED ORGANOGENESIS IN A DISH” (THE TRUSTEES OF THE UNIVERSITY OF PENNSYLVANIA, priority 2020, published 2024).

Where only a bound is given, the exact number is not on record here.

Common to all, as to assay type: cell-based, mouse
Experiment [1] concerns co-culture of intestinal organoids and primary intestinal fibroblasts (fibronectin). The experiment is described as follows: Intestinal fibrosis model in OCTOPUS, fibronectin (FN) deposition by immunofluorescence. From the text:
(§1) The difference between the two groups became evident within 3 days of treatment and remained statistically significant throughout the culture period (FIG. 6I). […] Consistent with the analysis of fibroblast activation and proliferation (FIG. 6E, FIG. 6F), from the comparison between co-culture and monoculture models, intestinal organoids potentiate the fibrogenic effect of TGF-β and promote FN production by fibroblasts (FIG. 6I, FIG. 6J) were identified.
(§2) First, fibrotic intestinal tissue constructs in OCTOPUS were generated by forming co-culture organoids over 5 days and exposing them to TGF-β for another 7 days as described above (day 5-day 12). These constructs were then treated with clinically relevant concentrations of the drugs for 48 hours (day 13-day 14) within the therapeutic window identified by viability assessment (data not shown). […] At 0.1 mM, Pirfenidone was effective for altering the contractile phenotype of fibroblasts, as illustrated by 50% reduction in αSMA compared to the untreated control (FIGS. 6L to 6O).
(§3) To form an intestinal fibrosis model suitable for, e.g. drug testing, in OCTOPUS, mouse intestinal stem cells were mixed with 1×10^6 cells/ml of mouse intestinal fibroblasts in Matrigel (356255, Corning, USA). This cell-containing hydrogel solution was injected into the device to form microtissue constructs in the organoid culture chambers. After gelation for 15 minutes in a regular cell culture incubator, 750 μl of IntestiCult™ organoid growth medium (06005, STEMCELL Technologies, Canada) was added into each well and maintained for 5 days to induce intestinal organoid development and fibroblast proliferation. During this period, the media were replenished every other day. To induce fibrosis, 1 ng/ml of TGF-β (T5050, Sigma, USA) was added to the culture wells on day 5 and maintained for additional 7 days. Drug administration occurred on day 12 using commercially available Pirfenidone (P1871, TCI America, USA) and Nintedanib (S1010, Selleckchem, USA) at specified concentrations. The fibrosis model was treated with drugs for 48 hours, after which changes in its fibrotic phenotype were analyzed using the methods described herein.
(§4) For immunofluorescence staining, cells in OCTOPUS were washed with PBS twice, fixed with 4% paraformaldehyde (Electron Microscopy Sciences, USA) for 15 minutes at room temperature, and washed again twice with PBS. The cells were then permeabilized with 0.1% Triton X-100 (Sigma) in PBS for 3 minutes and exposed to blocking buffer composed of PBS and 3% bovine serum albumin (BSA; Sigma) for overnight at 4° C. […]

Experiment [2] deals with co-culture of intestinal organoids and primary intestinal fibroblasts (αSMA). The experiment is described as follows: TGF-β-induced intestinal fibrosis model in OCTOPUS, αSMA immunofluorescence (fibroblast activation). The conditions noted are these: for increase in level of αSMA expression in comparison to untreated tissues: TGF-β 1 ng/ml from day 5.
Source text: To this end, OCTOPUS was used to set up a co-culture of intestinal organoids and primary intestinal fibroblasts in the same hydrogel scaffold and generate a multicellular construct reminiscent of the intestinal epithelium and its underlying stroma in vivo (FIG. 6A). In this mixed co-culture configuration, the intestinal progenitor cells embedded in Matrigel developed into or-ganoids over the course of 5 days or so, during which fibroblasts began to spread and proliferate around the nascent organoids. […] Prolonged culture in this device led to the formation of microtissues densely populated with enlarged organoids and fibroblasts (FIG. 6C).
(§5) To simulate the scenario of using this system to assess intestinal fibrosis in a conventional laboratory setting, a common technique widely used for in vitro modeling of fibrosis, which was to treat the co-culture construct with transforming growth factor (TGF)-β, were used. TGF-β plays a central role in the pathogenesis of fibrosis in the intestine and other organs by inducing the activation of fibroblasts and their transdifferentiation into myofibroblasts, which are the key effector cells that drive fibrogenesis. To trigger fibrogenic responses, the model was treated with TGF-β at 1 ng/ml from day 5 to day 12. Exposure of the intestinal microtissue to this condition indeed caused the fibroblasts to acquire the contractile phenotype of myofibroblasts, as evidenced by robust expression of alpha-smooth muscle actin (αSMA) (FIG. 6D). In comparison to untreated tissues, the level of expression increased by more than 1.9- and 2.9-fold by day 8 and day 12, respectively (FIG. 6E).
as §2, §3, §4

In experiment [3] the test system is primary intestinal fibroblasts co-cultured with intestinal organoids. The experiment is described as follows: Intestinal fibrosis model in OCTOPUS, fibroblast proliferation. The conditions noted are these: TGF-β 1 ng/ml from day 5; by day 12.
Source text: as §5
(§6) To form an intestinal fibrosis model suitable for, e.g. drug testing, in OCTOPUS, mouse intestinal stem cells were mixed with 1×10^6 cells/ml of mouse intestinal fibroblasts in Matrigel (356255, Corning, USA). […] The fibrosis model was treated with drugs for 48 hours, after which changes in its fibrotic phenotype were analyzed using the methods described herein.

Experiment [4] concerns co-culture microtissues of intestinal organoids and fibroblasts. In words: Intestinal fibrosis model in OCTOPUS, tissue stiffness by atomic force microscopy. The following applies: for stiffness of the TGF-β-treated fibrotic tissues (AFM): administered at higher doses. On the procedure:
To further validate the fibrotic phenotype of the model, the stiffness of the TGF-β-treated microtissues was measured by using atomic force microscopy (AFM). This measurement was greatly facilitated by the open-top design of OCTOPUS that allowed direct access of the AFM probe to the tissue constructs in the culture chambers (FIG. 6K). […] As expected, treatment of this model with TGF-01 led to a marked increase in the extent of tissue stiffening and generated co-culture constructs that were 2.9 times stiffer than those in the untreated devices (FIG. 6K).
The average stiffness measured in the fibrosis model treated with 0.5 mM Pirfenidone (3.5 kPa) closely matched that of normal tissue constructs (3.3 kPa), illustrating the potential of Pirfenidone to normalize the mechanical property of fibrotic intestinal tissues in the model system.
as §3
Atomic force microscopy (AFM, MFP-3D-BIO, Asylum) was used to measure the stiffness of hydrated microtissues in the intestinal fibrosis models. A gold-coated cantilever (SCONT tip, NANOSENSORS) with a spring constant of 14.58 pN/nm and a pyramid indenter was used to obtain force-indentation curves. The tissue samples in the open chambers were used directly without any modification. For the AFM measurement, the OCTOPUS insert containing microtissue was removed from the plate and mounted on the instrument. After wetting the microtissue with a drop of PBS, its mechanical property was measured with the scanning probe. Young's modulus was calculated from the force indentation data using the Atomic J software.

Experiment [5] has as its system co-culture of intestinal organoids and primary intestinal fibroblasts (released fibronectin). In words: Intestinal fibrosis model in OCTOPUS, released fibronectin by ELISA of conditioned media.
Source text: as §1, §2
For the analysis of fibronectin production in the intestinal fibrosis model, a mouse fibronectin ELISA kit (ab108849, abcam, USA) was used. The media in the wells were collected at specified time points and assayed using manufacturer-provided protocols. First, 50 μl of standard or device-collected samples were added into each well and incubated for 2 hours at room temperature. Subsequently, the wells were washed 5 times with 300 μl of wash buffer solution and then incubated with fibronectin antibody for 1 hour. […]
For all ELISA assays, a multimode plate reader (M200, Tecan, Switzerland) was used to measure the optical density of samples. […]
as §6

For the next experiment, the system named is intestinal organoids. In words: Intracellular calcium imaging (Fluo-4) of intestinal organoids. On the procedure:
To assess the level of intracellular calcium, the organoids were labeled with a fluorescent calcium indicator dye (Fluo-4) and monitored their fluorescence in real-time. Given the multicellular complexity of organoids, the mean fluorescence intensity was measured from representative organoids selected for analysis. Upon treatment with 100 μM ATP, organoids in the device increased their fluorescence by approximately 1.6-fold within 60 seconds, which was followed by a gradual decrease to the baseline level (FIG. 4E).
For calcium imaging, the organoid media were removed from the culture wells, and the organoid constructs were washed once in live-cell imaging solution (LCIS). The organoids were then loaded with Fluo-4 calcium imaging solution (F10489, ThermoFisher Scientific, USA) prepared according to the manufacturer's protocol. The samples were incubated at 37° C. for 30 minutes, which was followed by another 30-minute incubation at room temperature. Subsequently, the Fluo-4 solution was removed, and the organoids were washed once with LCIS. All samples were kept in fresh LCIS until use. An inverted epi-fluorescence microscope (Axio Observer D1, Zeiss, Germany) was used to visualize calcium staining of organoids upon stimulation with 100 μM of ATP (A1852, Sigma, USA) and 50 mM of glucose (G7021, Sigma, USA).
For ratiometric analysis of changes in Ca2+ levels, fluorescence intensity for each or-ganoid was measured during an experiment, and values were normalized by their resting intensities using the equation below.
ΔCa^2+=(F−Frest)/Frest (1)
A general note: A change in cytosolic calcium serves as a functional read-out for many receptors and channels.

Setting [6] is: higher-dose (0.5 mM) treatment, 48 hours.
Where [7] appears, read: 0.5 μM, 48 hours, to levels comparable to Pirfenidone at 0.5 mM.

In the case of “transforming growth factor (TGF)-β [TGF-β]”, the “FN in the pericellular regions of fibroblasts (immunostaining) compared to untreated tissues” value in experiment [1] (TGF-β 1 ng/ml, day 5 to day 12) is reported as “substantially increased”. For the same compound, the “increase in level of αSMA expression in comparison to untreated tissues” value is on record as “more than 1.9 fold” in experiment [2] (by day 8) and more than 2.9 fold in experiment [2] (by day 12). For the same compound, the “fibroblast proliferation, cells compared to the untreated control group” value in experiment [3] is “approximately twice as many cells”. In experiment [4] (TGF-β-treated co-culture constructs, AFM), this compound returned an average tissue stiffness of 10.1 kPa. In experiment [4] (TGF-β-treated, AFM, 14 days culture), the “stiffness of co-culture constructs relative to untreated devices” value is given as 2.9 times. The “released FN (ELISA of conditioned media)” value in experiment [5] (TGF-β 1 ng/ml, day 5 to day 12) is given as “higher levels of released FN”.

Take `Cc1ccc(=O)n(-c2ccccc2)c1` [Pirfenidone]: the “immunofluorescence of FN in drug-treated fibrotic constructs” value in experiment [1] (48 hours treatment) is reported as “significantly decreased”. Further, in experiment [1] (setting [6]), the “level of FN production versus normal group (healthy intestinal tissue)” value is recorded as “statistically indistinguishable”. Also, the “reduction in αSMA compared to the untreated control” value in experiment [2] (0.1 mM, 48 hours, TGF-β-induced fibrotic constructs) came out at 50%. Besides, the “expression of αSMA” value in experiment [2] (dose increased to 0.5 mM, 48 hours) was “further decreased”. Besides, in experiment [2] (setting [6]), the “level of αSMA expression versus normal group (healthy intestinal tissue)” value is on record as “statistically indistinguishable”. In experiment [4] (0.5 mM, 48 hours, normal tissue constructs 3.3 kPa), the “average stiffness of the treated fibrosis model” value was 3.5 kPa. The “stiffness of the TGF-β-treated fibrotic tissues (AFM)” value in experiment [4] (48 hours) is given as “significantly decreased”. Besides, in experiment [5] (48 hours treatment), the “amount of FN released from the model (ELISA)” value was “reduced”.

As for `O=C[C@H](O)[C@@H](O)[C@H](O)[C@H](O)CO` [D-glucose], the “increase in intracellular calcium in OCTOPUS” value in the experiment with intestinal organoids (50 mM, organoids in OCTOPUS) is “greater than that induced by ATP stimulation”.

Consider `Nc1ncnc2c1ncn2[C@@H]1O[C@H](COP(=O)(O)OP(=O)(O)OP(=O)(O)O)[C@@H](O)[C@H]1O` [ATP], for which the “calcium response of the conventional model (Matrigel drop)” value with intestinal organoids (100 μM, hydrogel drop culture, versus OCTOPUS) was “noticeably slower and occurred to a lesser extent”. The “increase in Fluo-4 fluorescence (intracellular calcium)” value with intestinal organoids (100 μM, organoids in OCTOPUS, within 60 seconds) was “approximately 1.6 fold”.

As to `COC(=O)c1ccc2c(c1)NC(=O)/C2=C(\Nc1ccc(N(C)C(=O)CN2CCN(C)CC2)cc1)c1ccccc1` [Nintedanib], the FN accumulation entry in experiment [1] (setting [7]) is on record as “decreased substantially”. In addition, in experiment [2] (setting [7]), the “fibroblast activation (αSMA)” value is “decreased substantially”. Also, in experiment [2] (lower dose 0.1 μM, 48 hours), the “effects on the fibrosis model (αSMA, FN)” value is recorded as “failed to exert significant effects”. Further, the “stiffness of the TGF-β-treated fibrotic tissues (AFM)” value in experiment [4] (48 hours) is “significantly decreased”. In experiment [5] (0.5 μM, 48 hours), the “concomitant reduction in the concentration of released FN (ELISA)” value is given as “not observed”.
